Patent EP0336753A1, “Improvements in or relating to propanamine derivatives” (ELI LILLY AND COMPANY, priority 1988, dated 1989)
Where two headings read alike, the source gives them in different places.

What was measured:
[1] = target: T1, serotonin (5HT) uptake (Rattus norvegicus, UniProt P31652); experiment: Inhibition of synaptosomal uptake of 3H-serotonin in vitro; assay type: biochemical, rats; conditions: for inhibition at 1 µM: 1000 nM test compound, number in parentheses, read-out: percent inhibition at 1000 nM (5HT)
T1 construct: Crude synaptosomal preparations were isolated after differential centrifugation; from tissue; host or cells: rat cerebral cortex, crude synaptosomes
T1 sequence (P31652 whole entry): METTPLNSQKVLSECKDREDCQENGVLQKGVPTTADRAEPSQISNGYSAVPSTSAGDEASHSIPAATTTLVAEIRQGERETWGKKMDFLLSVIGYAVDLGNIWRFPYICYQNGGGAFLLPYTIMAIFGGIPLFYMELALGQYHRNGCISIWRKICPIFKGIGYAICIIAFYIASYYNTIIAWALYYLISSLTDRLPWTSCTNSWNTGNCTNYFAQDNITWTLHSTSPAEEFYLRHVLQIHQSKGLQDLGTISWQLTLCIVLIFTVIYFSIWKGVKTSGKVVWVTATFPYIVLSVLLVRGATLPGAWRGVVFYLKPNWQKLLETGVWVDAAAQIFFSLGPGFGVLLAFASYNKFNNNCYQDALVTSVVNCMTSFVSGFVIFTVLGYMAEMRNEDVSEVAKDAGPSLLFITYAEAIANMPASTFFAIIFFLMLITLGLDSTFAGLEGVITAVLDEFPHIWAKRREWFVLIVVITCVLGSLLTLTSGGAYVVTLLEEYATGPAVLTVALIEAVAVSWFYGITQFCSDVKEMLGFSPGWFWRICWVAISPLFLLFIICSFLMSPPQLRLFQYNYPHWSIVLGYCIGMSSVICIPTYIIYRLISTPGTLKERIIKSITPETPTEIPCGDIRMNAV
Experimental: (§1) This general procedure is set forth by Wong et al., in Drug Development Research 6:397-403 (1985).
(§2) Male Sprague-Dawley rats (110-150 g) from Harlan Industries (Cumberland, IN) were fed a Purina Chow ad libitum for at least 3 days before being used in the studies. Rats were killed by decapitation. Whole brains were removed and dissected. Cerebral cortex was homogenized in 9 volumes of a medium containing 0.32 M sucrose and 10 mM glucose. Crude synaptosomal preparations were isolated after differential centrifugation at 1,000 g for 10 min. and 17,000 g for 28 min. The final pellets were suspended in the same medium and kept in ice until use within the same day.
(§3) Synaptosomal uptake of ³H-serotonin(³H-5-hydroxytryptamine, ³H-5HT) and ¹⁴C-ℓ-norepinephrine (¹⁴C-NE) was determined as follows. Cortical synaptosomes (equivalent to 1 mg of protein) were incubated at 37°C for 5 min in 1 ml of Krebs-bicarbonate medium containing also 10 mM glucose, 0.1 mM iproniazid, 1 mM ascorbic acid, 0.17 mM EDTA, 50nM, ³H-5HT and 100 nM ¹⁴C-NE. The reaction mixture was immediately diluted with 2 ml of ice-chilled Krebs-bicarbonate buffer and filtered under vacuum with a cell harvester (Brandel, Gaithersburg, MD). Filters were rinsed twice with approximately 5 ml of ice-chilled 0.9% saline and were transferred to a counting vial containing 10 ml of scintillation fluid (PCS, Amersham, Arlington Heights, IL). Radioactivity was measured by a liquid scintillation spectrophotometer. Accumulation of ³H-5HT and ¹⁴C-NE at 4°C represented the background and was subtracted from all samples.
(§4) The results of the evaluation of various compounds of the present invention are set forth below in Table I. In the Table, column 1 identifies the Example number of the compounds evaluated, and columns 2 and 3 provide the concentration of the test compound at 10⁻⁹M (nM) needed to inhibit 50% of serotonin (5HT) or norepinephrine, respectively, and is indicated in the Table as IC₅₀. The numbers in parentheses represent percent inhibition at 1000 nM.

[2] = target: T2, norepinephrine (NE) uptake (Rattus norvegicus, UniProt Q63380); experiment: Inhibition of synaptosomal uptake of 14C-l-norepinephrine in vitro; assay type: biochemical, rats; conditions: for IC50: 100 nM ¹⁴C-NE, 37°C for 5 min, read-out: IC₅₀(nM) NE; for inhibition at 1 µM: read-out: percent inhibition at 1000 nM (NE)
T2 construct: Crude synaptosomal preparations were isolated after differential centrifugation; from tissue; host or cells: rat cerebral cortex, crude synaptosomes
T2 sequence (Q63380 1-617): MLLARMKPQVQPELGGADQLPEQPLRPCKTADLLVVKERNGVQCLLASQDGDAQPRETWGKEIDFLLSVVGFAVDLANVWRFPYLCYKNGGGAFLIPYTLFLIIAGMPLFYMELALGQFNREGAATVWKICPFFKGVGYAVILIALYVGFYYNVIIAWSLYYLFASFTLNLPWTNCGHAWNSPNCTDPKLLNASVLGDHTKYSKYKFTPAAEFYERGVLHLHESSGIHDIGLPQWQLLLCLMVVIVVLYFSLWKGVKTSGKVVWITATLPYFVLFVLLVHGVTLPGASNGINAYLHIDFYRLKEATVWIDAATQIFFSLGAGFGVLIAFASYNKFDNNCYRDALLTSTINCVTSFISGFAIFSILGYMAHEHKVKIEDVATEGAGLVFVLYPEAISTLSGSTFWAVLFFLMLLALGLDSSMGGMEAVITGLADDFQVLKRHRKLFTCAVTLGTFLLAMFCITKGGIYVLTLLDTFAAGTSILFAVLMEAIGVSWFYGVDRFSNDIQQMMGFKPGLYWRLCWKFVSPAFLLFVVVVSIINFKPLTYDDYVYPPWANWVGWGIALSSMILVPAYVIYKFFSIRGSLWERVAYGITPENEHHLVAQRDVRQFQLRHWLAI
Experimental: as §1, §2, §3, §4

[3] = rat cerebral cortex synaptosomes
[4] = 1000 nM test compound, number in parentheses, rat cerebral cortex synaptosomes

SMILES	IC50 [1] [nM]	IC50 [2, 3] [nM]	inhibition at 1 µM [2] [%]	inhibition at 1 µM [1, 3] [%]	IC50 ([1]; rat cerebral cortex synaptosomes, 50 nM ³H-5HT, 37°C for 5 min, read-out: IC₅₀(nM) 5HT) [nM]	inhibition at 1 µM [2, 4] [%]
CSc1ccc(OC(CCN(C)C)c2ccccc2)cc1 (centres unmarked) [Example 1, N,N-Dimethyl-γ-[4-(methylthio)phenoxy]benzenepropanamine ethanedioate]	160	> 1000	18	–	–	–
CNCCC(Oc1ccc(SC)cc1)c1ccccc1 (centres unmarked) [Example 2, N-Methyl-γ-[4-(methylthio)phenoxy]benzenepropanamine ethanedioate]	48	704	–	–	–	–
CNCCC(Oc1ccc(SC(F)(F)F)cc1)c1ccccc1 (centres unmarked) [Example 3, N-Methyl-γ-{4-[trifluoromethyl)thio]phenoxy}benzenepropanamine ethanedioate]	–	> 1000	–	39	> 1000	9
CN(C)CCC(Oc1ccc(S(N)(=O)=O)cc1)c1ccccc1 (centres unmarked) [Example 4, 4-[3-(Dimethylamino)-1-phenylpropoxy]benzenesulfonamide ethanedioate]	> 1000	> 1000	0	15	–	–
CN(C)CCC(Oc1ccc(NS(C)(=O)=O)cc1)c1ccccc1 (centres unmarked) [Example 5, N-{4-[1-Phenyl-3-(dimethylamino)propoxy]phenyl}methanesulfonamide]	> 1000	> 1000	–	30	–	15
